Experimental data: patent US9193731B2, “Antimicrobial compounds and methods of making and using the same” (Melinta Therapeutics, Inc., priority 2009, dated 2015)

test system: Escherichia coli strain ATCC25922; assay: standard microdilution assay to determine minimum inhibitory concentrations (MICs); format: cell-based; conditions: Escherichia coli strain ATCC25922, microdilution
Method: Minimum inhibitory concentrations (MICs) are determined by the microdilution method, typically in a final volume of 100 microliters, according to protocols outlined by The Clinical and Laboratory Standards Institute [CLSI; formerly the National Committee for Clinical Laboratory Standards (NCCLS)]. See CLSI: Methods for dilution antimicrobial susceptibility tests for bacteria that grow aerobically; approved standard-fifth edition. Wayne, Pa.: NCCLS; 2000. The assays can be also be performed in microtiter trays according to conventional methodologies as published by the CLSI. See CLSI. Methods for Dilution Antimicrobial Susceptibility Tests for Bacteria That Grow Aerobically; Approved Standard—Seventh Edition. CLSI Document M7-A7 [ISBN 1-56238-587-9] CLSI, 940 West Valley Road, Suite 1400, Wayne Pa. 19087-1898 USA, 2006).
The compounds of the present invention were tested for antimicrobial activity. The compounds were run against Escherichia coli strain ATCC25922 using a standard microdilution assay to determine minimum inhibitory concentrations (MICs). […] A “N/A” means that data is unavailable. It will be recognized by one skilled in the art that the compounds can be assessed against other bacterial organisms and that the presentation of data for activity against Escherichia coli is illustrative and in no way is intended to limit the scope of the present invention. The compounds of the present invention can be assayed against a range of other microorganisms depending upon the performance activity desired to be gathered. Furthermore, the “+”, “−”, and “N/A” representation and the selection of a cutoff value of 16 micrograms/ml is also illustrative and in no way is intended to limit the scope of the present invention.

Compound | E. coli ATCC25922 MIC
N=C(N)NCCCNC(=O)c1ccc(-n2cc3cc(-c4cccc(CCCCN)c4)[nH]c3nc2=O)cc1 [Compound 1433] | + (a “+” indicates that the compound has an MIC value of 16 micrograms/ml or less)
N=C(N)NCCCNCc1ccc(-c2cn3cc(CCc4cccc(OC(F)(F)F)c4)[nH]c3nc2=O)cc1 [Compound 975] | − (a “−” indicates that the compound has an MIC value greater than 16 micrograms/ml)
N=C(N)NCCCNCc1ccc(-n2cc3cc(-c4ccc(S(=O)(=O)N(CCCN5CCS(=O)(=O)CC5)C5CCNCC5)cc4)[nH]c3nc2=O)cc1 [Compound 855] | + (a “+” indicates that the compound has an MIC value of 16 micrograms/ml or less)
N=C(N)N[C@@H]1CCN(Cc2ccc(-n3cc4cc(-c5ccc(S(=O)(=O)N(CCCN6CCS(=O)(=O)CC6)C6CCNCC6)cc5)[nH]c4nc3=O)cc2)C1 [Compound 1222] | − (a “−” indicates that the compound has an MIC value greater than 16 micrograms/ml)
N=C(N)NCCCNCc1ccc(-n2cc3cc(-c4cc(C(=O)NC5CCNCC5)cc(N5CCNCC5)c4)[nH]c3nc2=O)cc1 [Compound 1023] | + (a “+” indicates that the compound has an MIC value of 16 micrograms/ml or less)
N=C(N)NCCC(NCc1ccc(-n2cc3cc(-c4ccc(S(=O)(=O)NC5CNC5)cc4)[nH]c3nc2=O)cc1)C(F)(F)F (stereo not drawn) [Compound 1415] | + (a “+” indicates that the compound has an MIC value of 16 micrograms/ml or less)
N=C(N)NCCCNCc1ccc(-n2cc3cc(-c4cc(CCCCN)cc(OC(F)F)c4)[nH]c3nc2=O)cc1 [Compound 2074a] | + (a “+” indicates that the compound has an MIC value of 16 micrograms/ml or less)
N=C(N)NCCCNCc1ccc(-n2cc3cc(-c4ccc(S(=O)(=O)CCCNC5CCCOC5)cc4)[nH]c3nc2=O)cc1 (stereo not drawn) [Compound 1275] | + (a “+” indicates that the compound has an MIC value of 16 micrograms/ml or less)
CSCc1cc(CCCCN)cc(-c2cc3cn(-c4ccc(CNCCCNC(=N)N)cc4)c(=O)nc3[nH]2)c1 [Compound 2083a] | + (a “+” indicates that the compound has an MIC value of 16 micrograms/ml or less)
N=C(N)NCCCNCc1ccc(-n2cc3cc(-c4ccc(S(=O)(=O)N(CCCC5CCCCN5)C5CCNCC5)cc4)[nH]c3nc2=O)cc1 (stereo not drawn) [Compound 1019] | + (a “+” indicates that the compound has an MIC value of 16 micrograms/ml or less)
NC(N)=NCCC(=O)NCc1ccc(-n2cc3cc(-c4ccc(S(=O)(=O)N(CCOc5ccc(F)cc5)C5CCNCC5)cc4)[nH]c3nc2=O)cc1 [Compound 1196] | − (a “−” indicates that the compound has an MIC value greater than 16 micrograms/ml)
NCCCNCc1ccc(-c2cn3cc(-c4ccc(C(=O)N5CCN(CCF)CC5)cc4)[nH]c3nc2=O)cc1 [Compound 825] | − (a “−” indicates that the compound has an MIC value greater than 16 micrograms/ml)
N=C(N)NCCCNCc1ccc(-n2cc3cc(-c4ccc(S(=O)(=O)N(CC5COCCO5)C5CCCNC5)cc4)[nH]c3nc2=O)cc1 (stereo not drawn) [Compound 851] | + (a “+” indicates that the compound has an MIC value of 16 micrograms/ml or less)
CNCc1ccc(-n2cc3cc(-c4ccc(S(=O)(=O)N(CCCN5CCCCC5)C5CCNCC5)cc4)[nH]c3nc2=O)cc1 [Compound 959] | − (a “−” indicates that the compound has an MIC value greater than 16 micrograms/ml)
N=C(N)NCCCNCc1ccc(-n2cc3cc(-c4cc(C(=O)Nc5cccc(F)c5)cc(N5CCNCC5)c4)[nH]c3nc2=O)cc1 [Compound 982] | + (a “+” indicates that the compound has an MIC value of 16 micrograms/ml or less)
CC(CN)CN1CCC(c2cc3cn(-c4ccc(CNCCCNC(=N)N)cc4)c(=O)nc3[nH]2)C1 (mixture of isomers) [Compound 2008a] | + (a “+” indicates that the compound has an MIC value of 16 micrograms/ml or less)
N=C(N)NCCCNCc1ccc(-n2cc3cc(-c4ccc(S(=O)(=O)N(CCCc5cnc6ncnn6c5)C5CCNCC5)cc4)[nH]c3nc2=O)cc1 [Compound 862] | + (a “+” indicates that the compound has an MIC value of 16 micrograms/ml or less)
N=C(N)NCCCNCc1ccc(-n2cc3cc(-c4ccc(S(=O)(=O)CCCNC5CCCNC5)cc4)[nH]c3nc2=O)cc1 (stereo not drawn) [Compound 1293] | + (a “+” indicates that the compound has an MIC value of 16 micrograms/ml or less)
N=C(N)NCCCNCc1ccc(-n2cc3cc(-c4cc(Cl)cc(CCCCN)c4)[nH]c3nc2=O)cc1 [Compound 2068a] | + (a “+” indicates that the compound has an MIC value of 16 micrograms/ml or less)
N=C(N)NCCCNCc1ccc(-n2cc3cc(CCS(=O)(=O)N(CCCc4ccccc4F)C4CCNCC4)[nH]c3nc2=O)cc1 [Compound 992] | + (a “+” indicates that the compound has an MIC value of 16 micrograms/ml or less)
N=C(N)NCCCNCC(Cn1cc2cc(-c3ccc(S(=O)(=O)NC4CCNCC4)cc3)[nH]c2nc1=O)OCc1ccc(F)cc1 (stereo not drawn) [Compound 1097] | − (a “−” indicates that the compound has an MIC value greater than 16 micrograms/ml)
N=C(N)NCCCNCc1ccc(-n2cc3cc(-c4ccc(Cl)c(CCCCN)c4)[nH]c3nc2=O)cc1 [Compound 2089a] | + (a “+” indicates that the compound has an MIC value of 16 micrograms/ml or less)

same assay, conditions: Escherichia coli, ATCC25922, Escherichia coli strain ATCC25922, microdilution; read-out: E. coli ATCC25922 MIC

MIC [µg/mL] | Compound
> 16 | O=C(NC1CCNCC1)c1ccc(-c2cc3cn(-c4ccc(CNCc5c[nH]nn5)cc4)c(=O)nc3[nH]2)cc1 [Compound 240]
> 16 | N=C(N)NCCCNCc1ccc(C2N=c3cc(C4CNCCO4)[nH]c3=NC2=O)cc1 (stereo not drawn) [Compound 1329]
> 16 | CC(C)ONC(=O)c1ccc(-c2cn3cc(-c4ccc(CNCCCNC(=N)N)cc4)c(=O)nc3[nH]2)cc1 [Compound 737]
< 16 | CN(C)C(=O)c1cc(-c2cc3cn(-c4ccc(CNCCCNC(=N)N)cc4)c(=O)nc3[nH]2)cc(N2CCNCC2)c1 [Compound 797]
> 16 | N=C(N)NCCCNCc1ccc(-c2cn3cc(-c4ccc(S(=O)(=O)N5CCC(F)C5)cc4)[nH]c3nc2=O)cc1 (stereo not drawn) [Compound 744]
> 16 | NCCCNCc1ccc(-c2cn3cc[nH]c3nc2=O)cc1 [Compound 563, 6-{4-[(3-Amino-propylamino)-methyl]-phenyl}-1H-imidazo[1,2-a]pyrimidin-7-one]
> 16 | COc1ccccc1-c1nn2cc(-c3ccc(CNCCCN)cc3)c(=O)nc2[nH]1 [Compound 734]
> 16 | N=C(N)N[C@@H]1CCN(Cc2ccc(-n3cc4cc[nH]c4nc3=O)cc2)C1 [Compound 1140]
< 16 | N=C(N)NCCCNCc1ccc(-n2cc3cc(C4CCCNC4)[nH]c3nc2=O)cc1 (stereo not drawn) [Compound 1210]
> 16 | NCCCCN1CCC(n2cc3c(nc2=O)[nH]c2ccccc23)CC1 [Compound 600]
< 16 | NCCCNCc1ccc(-n2cc3cc(CCNC4CCNCC4)[nH]c3nc2=O)cc1 [Compound 687]
> 16 | NCCCOCc1ccc(-c2cn3cc(-c4ccc(C(=O)NC5CCNCC5)cc4)[nH]c3nc2=O)cc1 [Compound 927]
< 16 | CN(CCO)C(=O)c1ccc(-c2cn3cc(-c4ccc(CNCCCN)cc4)c(=O)nc3[nH]2)cc1 [Compound 771]
> 16 | NCc1ccc(-n2cc3cc(-c4cccc(OCCF)c4)[nH]c3nc2=O)cc1 [Compound 1168]
> 16 | NCCCNCc1ccc(-n2cc3cc(-c4ccccc4C(F)(F)F)[nH]c3nc2=O)cc1 [Compound 292]
> 16 | COCCOCCOc1cccc(-c2cc3cn(-c4ccc(CN)cc4)c(=O)nc3[nH]2)c1 [Compound 1094]
> 16 | COCCOCCN(C1CCNCC1)S(=O)(=O)c1cccc(-c2cc3cn(-c4ccc(CN)cc4)c(=O)nc3[nH]2)c1 [Compound 1158]
> 16 | N=C(N)NCCCNCc1ccc(-c2cn3cc(-c4ccc(C(=O)N5CC[C@H](F)C5)cc4)[nH]c3nc2=O)cc1 [Compound 673]
< 16 | NCCCNCc1ccc(-n2cc3cc(-c4cccc(N5CCNCC5)c4)[nH]c3nc2=O)cc1 [Compound 775]
> 16 | NCCCc1c[nH]c2cc(-n3cc4cc(CCS(=O)(=O)C5CCNCC5)[nH]c4nc3=O)ccc12 [Compound 1282]
< 16 | NCCCNCc1ccc(-n2cc3cc(-c4ccc(S(=O)(=O)N(Cc5ccc(Cl)c(Cl)c5)C5CCNCC5)cc4)[nH]c3nc2=O)cc1 [Compound 697]
> 16 | CNCc1ccc(-n2cc3cc(-c4ccc(S(=O)(=O)N(CCCC5CCCO5)C5CCNCC5)cc4)[nH]c3nc2=O)cc1 (stereo not drawn) [Compound 1052]
> 16 | O=c1nc2[nH]c(-c3ccc(S(=O)(=O)NC4CCNCC4)cc3)cc2cn1-c1cccc(OC2CCNC2)c1 (stereo not drawn) [Compound 1148]
> 16 | CS(=O)(=O)c1ccc(-c2cn3cc(-c4ccc(CNCCCN)cc4)c(=O)nc3[nH]2)cc1 [Compound 631]

Compound | MIC [µg/mL]
N=C(N)NCCCN1CC=C(c2cn3cc[nH]c3nc2=O)CC1 [Compound 572] | > 16
N=C(N)NCCCNCc1ccc(-c2cn3cc(-c4ccc(C(=O)N5C6CCC5CC(=O)C6)cc4)[nH]c3nc2=O)cc1 [Compound 703] | > 16
